Key:
GST-tagged Cn [1] = assay: PEPperPRINT peptide microarray binding assay with GST-tagged Cn
How it was run: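 Qualitative binding: peptides printed on a PEPperPRINT microarray were incubated overnight at 4 °C with 1 mg/ml GST-tagged Cn, then detected with Alexa-Fluor 647 anti-GST antibody. Log fluorescence was baseline-corrected, averaged over duplicate spots, Z-normalized and averaged across five repeats.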

GST-tagged Cn [2] = assay: as above; details: max over the duplicate spots (Location on chip)
[3] = GST-tagged Cn, mean over the duplicate spots (Location on chip)
[4] = GST-tagged Cn, max over the spots on the chip (two locations)
[5] = GST-tagged Cn, mean over the spots on the chip (two locations)
[6] = max over the spots listed under Location on chip
[7] = mean over the spots listed under Location on chip
[8] = GST-tagged Cn, max over the chip locations
[9] = GST-tagged Cn, mean over the chip locations

RNPESPVLELEGHSAS [SeqRBMlowT_6180]
Chip Fluorescence (mean) (GST-tagged Cn [1]; [3]): 0.5231
Chip Fluorescence (max) (GST-tagged Cn [2]): 1.97

PNGSNPETVIKPDWTE [SeqRBM_275]
Chip Fluorescence (mean) (GST-tagged Cn [1]; [3]): 0.6822
Chip Fluorescence (max) (GST-tagged Cn [2]): 1.983

KADYTISLILHYDAIE [Seqshuffled_9660]
Chip Fluorescence (mean) (GST-tagged Cn [1]; [3]): 0.7325
Chip Fluorescence (max) (GST-tagged Cn [2]): 1.911

RNPGSPVLVLEGHSAA [SeqYPL247C_Zygosaccharomyces_parabailii]
Chip Fluorescence (mean) (GST-tagged Cn [1]; [3]): -0.2767
Chip Fluorescence (max) (GST-tagged Cn [2]): 2.128

RMYINPFVQFIDGGNR [SeqSFB3_Mycena_chlorophos]
Chip Fluorescence (mean) (GST-tagged Cn [1]; [3]): -0.09268
Chip Fluorescence (max) (GST-tagged Cn [2]): 2.0812

RTYINPFMLFEDMGSR [SeqRBM_7588]
Chip Fluorescence (mean) (GST-tagged Cn [1]; [3]): 0.1039
Chip Fluorescence (max) (GST-tagged Cn [2]): 2.523

GFETTPSIVVHVCEED [SeqRBMlowT_1939]
Chip Fluorescence (mean) (GST-tagged Cn [1]; [3]): 0.4497
Chip Fluorescence (max) (GST-tagged Cn [2]): 2.448

RAYKNPFMQFDLDSSL [SeqRBM_8076]
Chip Fluorescence (mean) (GST-tagged Cn [1]; [3]): 1.346
Chip Fluorescence (max) (GST-tagged Cn [2]): 2.512

RAYDNPVFSFTFDSKG [SeqRBM_7566]
Chip Fluorescence (mean) (GST-tagged Cn [1]; [3]): 0.4256
Chip Fluorescence (max) (GST-tagged Cn [2]): 2.445

SSMAQPAINIDFAPTN [SeqRBMlowT_2450]
Chip Fluorescence (mean) (GST-tagged Cn [1]; [3]): -0.1624
Chip Fluorescence (max) (GST-tagged Cn [2]): 2.328

PTNGIPEMQRNSAKSA [Seqshuffled_9538]
Chip Fluorescence (mean) (GST-tagged Cn [1]; [3]): 0.992
Chip Fluorescence (max) (GST-tagged Cn [2]): 2.2337

ESRYRRFRQFQAPKVD [Seqshuffled_9523]
Chip Fluorescence (mean) (GST-tagged Cn [1]; [3]): 1.1019
Chip Fluorescence (max) (GST-tagged Cn [2]): 2.434

SDVAQQCLPSQHWSCW [Seqrandom_9997]
Chip Fluorescence (mean) (GST-tagged Cn [1]; [3]): 0.2486
Chip Fluorescence (max) (GST-tagged Cn [2]): 2.401

YRQAVRFEMPLTACAP [Seqrandom_9969]
Chip Fluorescence (mean) (GST-tagged Cn [1]; [3]): 0.771
Chip Fluorescence (max) (GST-tagged Cn [2]): 2.355

AEVGIVRFSRHPVAQD [Seqshuffled_9961]
Chip Fluorescence (mean) (GST-tagged Cn [1]; [3]): 0.06577
Chip Fluorescence (max) (GST-tagged Cn [2]): 2.2

TFWTNPQFKFRLEDPD [SeqRBMlowT_7471]
Chip Fluorescence (mean) (GST-tagged Cn [1]; [3]): 0.6593
Chip Fluorescence (max) (GST-tagged Cn [2]): 2.466

ADEATPSIVVHVCELP [SeqRBMlowT_118]
Chip Fluorescence (mean) (GST-tagged Cn [1]; [3]): 0.5506
Chip Fluorescence (max) (GST-tagged Cn [2]): 2.544

SSSAAPEIVVSKPEHN [SeqRBMlowT_9785]
Chip Fluorescence (mean) (GST-tagged Cn [1]; [3]): -0.01901
Chip Fluorescence (max) (GST-tagged Cn [2]): 2.217

TFWTNPQYKITLEDED [SeqRBMlowT_7336]
Chip Fluorescence (mean) (GST-tagged Cn [1]; [3]): 1.363
Chip Fluorescence (max) (GST-tagged Cn [2]): 2.0782

PSLYINALGIESFTLS [SeqRBMlowT_6967]
Chip Fluorescence (mean) (GST-tagged Cn [1]; [3]): 0.7051
Chip Fluorescence (max) (GST-tagged Cn [2]): 2.037

TFWTNPQFRITLEEPD [SeqRBMlowT_11]
Chip Fluorescence (mean) (GST-tagged Cn [1]; [3]): 0.7438
Chip Fluorescence (max) (GST-tagged Cn [2]): 2.387

TFWTNPQFVTLVKDGD [SeqRBM_8117]
Chip Fluorescence (max) (GST-tagged Cn [1]; [4]): 1.011
Chip Fluorescence (mean) (GST-tagged Cn [1]; [5]): -0.2929

EDGKVPSIEIDVREYA [SeqRBM_7430]
Chip Fluorescence (max) (GST-tagged Cn [1]; [6]): 2.944
Chip Fluorescence (mean) (GST-tagged Cn [1]; [7]): 0.8153

LKDEFPDVRLHIISKL [SeqRCN1_Arthroderma_otae]
Chip Fluorescence (max) (GST-tagged Cn [1]; [4]): 1.269
Chip Fluorescence (mean) (GST-tagged Cn [1]; [5]): 0.6031

STSSLPTFSFSSPQPS [SeqRBMlowT_3925]
Chip Fluorescence (max) (GST-tagged Cn [1]; [4]): 1.1241
Chip Fluorescence (mean) (GST-tagged Cn [1]; [5]): -0.7201

PVHTIHRVSLQDAGKY [SeqCEACAM5_Aedes_aegypti]
Chip Fluorescence (max) (GST-tagged Cn [1]; GST-tagged Cn, max over the chip spots listed under Location on chip): 0.8319
Chip Fluorescence (mean) (GST-tagged Cn [1]; GST-tagged Cn, mean over the chip spots listed under Location on chip): -0.7144

LSLKIPEISIQDMTAQ [SeqFLNA_Macaca_mulatta]
Chip Fluorescence (max) (GST-tagged Cn [1]; [4]): 1.124
Chip Fluorescence (mean) (GST-tagged Cn [1]; [5]): -0.12

KMAKFLINLSAEKSVM [Seqrandom_9965]
Chip Fluorescence (max) (GST-tagged Cn [1]; [4]): 1.232
Chip Fluorescence (mean) (GST-tagged Cn [1]; [5]): -0.1213

RSPGTFPLELSGHKKQ [SeqRBMlowT_6356]
Chip Fluorescence (max) (GST-tagged Cn [1]; [4]): 1.326
Chip Fluorescence (mean) (GST-tagged Cn [1]; [5]): -0.7748

STKSSGRPSRSPERAS [SeqRGA2_Colletotrichum_sublineola]
Chip Fluorescence (max) (GST-tagged Cn [1]; [6]): 2.848
Chip Fluorescence (mean) (GST-tagged Cn [1]; [7]): -0.8116

DSLYQEVLGIGSFSLA [SeqCRZ1_Hypocrea_virens]
Chip Fluorescence (max) (GST-tagged Cn [1]; [6]): 2.584
Chip Fluorescence (mean) (GST-tagged Cn [1]; [7]): -0.1117

GTLYDNVLGIESFSLS [SeqRBMlowT_4817]
Chip Fluorescence (max) (GST-tagged Cn [1]; max over the chip locations listed for the peptide (two spots)): 3.464
Chip Fluorescence (mean) (GST-tagged Cn [1]; mean over the chip locations listed for the peptide (two spots)): 0.964

MRRERSNRAMFKVNQH [Seqrandom_9977]
Chip Fluorescence (max) (GST-tagged Cn [1]; GST-tagged Cn, max over the spots named in Location on chip): 1.743
Chip Fluorescence (mean) (GST-tagged Cn [1]; GST-tagged Cn, mean over the spots named in Location on chip): -0.1357

TFWTNPQFRITLEDPD [SeqRBMlowT_31]
Chip Fluorescence (max) (GST-tagged Cn [1]; [6]): 2.946
Chip Fluorescence (mean) (GST-tagged Cn [1]; [7]): 1.658

STSSLPTFSFSSPPPT [SeqRBMlowT_3483]
Chip Fluorescence (max) (GST-tagged Cn [1]; [8]): -1.1866
Chip Fluorescence (mean) (GST-tagged Cn [1]; [9]): -2.157

EPEMSPSIFILKAHTT [SeqRBM_1051]
Chip Fluorescence (max) (GST-tagged Cn [1]; [8]): -0.7132
Chip Fluorescence (mean) (GST-tagged Cn [1]; [9]): -1.058

LHPTCDPFRCSTHQSH [Seqshuffled_9610]
Chip Fluorescence (max) (GST-tagged Cn [1]; [4]): 1.254
Chip Fluorescence (mean) (GST-tagged Cn [1]; [5]): 0.008632

QAVMCTAMSWCDCGQR [SeqRBM_6860]
Chip Fluorescence (max) (GST-tagged Cn [1]; [4]): 1.273
Chip Fluorescence (mean) (GST-tagged Cn [1]; [5]): 0.6916

Reference: paper PMC9928118, “Funneling modulatory peptide design with generative models: Discovery and characterization of disruptors of calcineurin protein-protein interactions” (PLOS Computational Biology, 2023)
